The test system of test [1] is C33 A (HPV-negative human cervical cancer cell line). Put plainly: MTT cytotoxicity assay, C33 A cervical cancer cells. Type of test: cell-based. The settings on record: read-out: Growth Inhibition of Cells (GI50 ± SEM) C33 A (HPV-Negative).
The test system of test [2] is CaSki (HPV16-positive human cervical cancer cell line). In words: MTT cytotoxicity assay, CaSki cervical cancer cells. It counts as cell-based. To be noted: 48 h incubation, three independent experiments, read-out: Growth Inhibition of Cells (GI50 ± SEM) CaSki (HPV-16).
The subject of test [3] is HeLa (HPV18-positive human cervical cancer cell line). Put plainly: MTT cytotoxicity assay, HeLa cervical cancer cells. Type of test: cell-based. The settings on record: 48 h incubation, three independent experiments, read-out: Growth Inhibition of Cells (GI50 ± SEM) HeLa (HPV-18).
Test [4] has as its system MCF-7 breast adenocarcinoma cells. Put plainly: MTT cytotoxicity assay, MCF-7 breast adenocarcinoma cells. It counts as cell-based, human. The settings on record: three independent experiments, read-out: Growth Inhibition of Cells (GI50 ± SEM) MCF-7.
In test [5] the test system is DU-145 prostate cancer cell line. Put plainly: MTT cytotoxicity assay, DU-145 prostate cancer cells. The settings on record: three independent experiments, read-out: Growth Inhibition of Cells (GI50 ± SEM) DU-145. It counts as cell-based, human.
Test [6] concerns SNB-19 glioblastoma cell line. Put plainly: MTT cytotoxicity assay, SNB-19 glioblastoma cells. It counts as cell-based, human. To be noted: three independent experiments, read-out: Growth Inhibition of Cells (GI50 ± SEM) SNB-19.
Test [7] relates to T98G glioblastoma cell line. Put plainly: MTT cytotoxicity assay, T98G glioblastoma cells. It counts as cell-based, human. To be noted: 48 h incubation, three independent experiments, read-out: Growth Inhibition of Cells (GI50 ± SEM) T98G.
The subject of test [8] is Normal epithelial VERO cells. Put plainly: MTT cytotoxicity assay, normal epithelial VERO cells (non-cancer control). Type of test: cell-based, African green monkey. The settings on record: 48 h incubation, three independent experiments, read-out: Growth Inhibition of Cells (GI50 ± SEM) VERO.
Details of test [9]: method as in PMID 21725818. The settings on record: mice; cited from earlier work.
Details of test [10]: method as in PMID 21725818. The settings on record: rats; cited from earlier work.
Another test has as its system activated macrophages. Further details: method as in PMID 9810263. The settings on record: in vivo; cited from earlier work.
Where [11] appears, read: Homo sapiens, MCF7, 48 h, 48 h incubation.
Where [12] appears, read: Homo sapiens, DU-145, 48 h incubation.
Where [13] appears, read: Homo sapiens, SNB-19, 48 h incubation.
Setting [14] is: Chlorocebus sabaeus, Vero, 48 h.
[15] abbreviates: Homo sapiens, C-33-A, MTT, 48 h incubation, three independent experiments.

Read-outs that look alike come from different tables or passages of the source.

Consider “1-O-Galloyl-β-D-glucopyranose [Compound 6]”, for which the GI50 was 27 ± 2.6 µM in test [1] (MTT, 48 h incubation, three independent experiments); 18 ± 1.4 µM in test [2]; 29 ± 2.4 µM in test [3]; 31 ± 0.7 µM in test [4] (48 h incubation); 67 ± 6.4 µM in [5] (48 h incubation); 26 ± 1.2 µM in test [6] (48 h incubation). Further, the values for the GI50 in test [7] and in [8] were 21 ± 0.8 µM and > 100 µM, respectively.
As to `C[C@H](CCc1ccc(O)cc1)O[C@@H]1O[C@H](CO)[C@@H](O)[C@H](O)[C@H]1O` [Compound 1, (R)-4-(4-Hydroxyphenyl)-2-butanol 2-β-D-glucopyranoside], the GI50 was found to be 27 ± 1.4 µM in test [1] (Homo sapiens, C-33-A, 48 h); 12 ± 0.7 µM in [2] (Homo sapiens, Ca-Ski); 16 ± 0.8 µM in test [3] (Homo sapiens, HeLa); 10 ± 1.8 µM in [4] (setting [11]); 21 ± 2.3 µM in [5] (setting [12]); 23 ± 4.1 µM in [6] (setting [13]). Also, the concentration for 50% growth inhibition (GI50) in test [7] (Homo sapiens, T98G) is 29 ± 2.5 µM; in [8] it was > 100 µM; in test [8] (setting [14]), > 83 µM. Also, the analgesic actions result in [9] was “significant analgesic actions”. Further, the anti-inflammatory actions entry in test [10] is “anti-inflammatory actions”.
With `C[C@@H](CCc1ccc(O)cc1)O[C@@H]1O[C@H](CO)[C@@H](O)[C@H](O)[C@H]1O` [Compound 3, (S)-4-(4-Hydroxyphenyl)-2-butanol 2-β-D-glucopyranoside], in the test on activated macrophages, the “NO production by activated macrophages” value is “suppressed NO production”.
Turning to `C[C@@H](O)CCc1ccc(O)cc1` [Compound 4, (R)-4-(4-Hydroxyphenyl)-2-butanol], the GI50 in test [1] (setting [15]) amounted to 28 ± 0.5 µM; in [2] (Homo sapiens, Ca-Ski), 10 ± 0.6 µM; in [3] (Homo sapiens, HeLa) it was 29 ± 0.7 µM; in [4] (setting [11]), 11 ± 1.4 µM; in test [5] (setting [12]), 21 ± 0.8 µM; in [6] (setting [13]), 15 ± 0.9 µM. For the same compound, the GI50 in [7] (Homo sapiens, T98G) is 18 ± 1.1 µM; in test [8] it was > 100 µM; in [8] (setting [14]), > 83 µM.
Consider `C[C@H](O)CCc1ccc(O)cc1` [Compound 5, (S)-4-(4-Hydroxyphenyl)-2-butanol], for which, in the test with activated macrophages, the “NO production by activated macrophages” value is recorded as “suppressed NO production”.
In the case of `CC(=O)CCc1ccc(O)cc1` [Compound 9, 4-(4-Hydroxyphenyl)butan-2-one], the GI50 in [1] (setting [15]) worked out at 19 ± 2.2 µM; in test [2] (Homo sapiens, Ca-Ski) it was 20 ± 1.5 µM; in test [3] (Homo sapiens, HeLa), 23 ± 3.7 µM; in test [4] (setting [11]), 21 ± 2.1 µM; in test [5] (setting [12]) it was 60 ± 1.7 µM; in [6] (setting [13]), 33 ± 1.8 µM. In addition, the GI50 in test [7] (Homo sapiens, T98G) was 19 ± 0.9 µM; in [8], > 100 µM; in test [8] (setting [14]) it was > 83 µM.
Take `COc1ccc(C=Cc2cc(O)cc(OC3OC(CO)C(O)C(O)C3O)c2)cc1` [Compound 11, 3,5-Dihydroxy-4′-methoxystilbene-3-O-β-D-glucopyranoside]: the GI50 in test [3] (Homo sapiens, HeLa) is 17 ± 0.9 µM; in test [4] (48 h incubation), 8 ± 1.8 µM; in [4] (setting [11]), 7 to 8 µM; in test [6] (setting [13]) it was 13 ± 1.1 µM; in test [7] (Homo sapiens, T98G) it was 18 ± 3.5 µM; in [8] it was 92 ± 7.9 µM. In [8] (setting [14]), the GI50 is > 83 µM.
With `OC[C@H]1O[C@@H](Oc2ccc(/C=C/c3cc(O)cc(O)c3)cc2)[C@H](O)[C@@H](O)[C@@H]1O` [Compound 12, (E)-resveratrol 4′-O-β-D-glucopyranoside], the GI50 is 18 ± 1.6 µM in test [3] (Homo sapiens, HeLa); 7 ± 1.2 µM in [4] (48 h incubation); 7 to 8 µM in test [4] (setting [11]); 9.2 ± 0.8 µM in [6] (setting [13]); 21 ± 1.7 µM in test [7] (Homo sapiens, T98G); 98 ± 4.8 µM in test [8]. Besides, in test [8] (setting [14]), the GI50 is > 83 µM.
Regarding `COc1cccc2c1C(=O)c1c(O)c3c(c(O)c1C2=O)C[C@@](O)(C(=O)CO)C[C@@H]3O[C@H]1C[C@H](N)[C@H](O)[C@H](C)O1` [Doxorubicin, reference compound], the GI50 was 10.1 ± 0.7 µM in [2] (Homo sapiens, Ca-Ski); 6.1 ± 0.7 µM in [3] (Homo sapiens, HeLa); 5.2 ± 0.8 µM in test [4] (Homo sapiens, MCF7, 48 h incubation); 15 ± 0.3 µM in [5] (setting [12]); 7.6 ± 0.7 µM in test [6] (setting [13]); 13 ± 0.5 µM in test [7] (Homo sapiens, T98G). Also, in test [8] (Chlorocebus sabaeus, Vero), the 50% growth inhibitory concentration (GI50) worked out at 8 ± 1.8 µM.

Source of the values: publication PMC12299285, “Isolation and Identification of Secondary Metabolites in Rheum tataricum L.fil. Growing in Kazakhstan and Surveying of Its Anticancer Potential” (Molecules, 2025).
